From article PMC10390775, “CETP inhibitor evacetrapib enters mouse brain tissue” (Frontiers in Pharmacology, 2023)

Assays:
[1] = Rapid equilibrium dialysis, plasma on both sides of the membrane; type: in vitro ADME; settings: after 24 h, preliminary data
Source text: One last factor we considered in this study was the mechanism by which evacetrapib is transported into brain tissue. To that effect, toxicokinetic parameters were derived from the blood and brain time courses, which indicate that the drug possibly requires some sort of transporter to reach peripheral compartments, such as the brain, and to clear from brain tissue. […] A possible explanation could be that evacetrapib enters the brain faster than it is cleared out of it, leading to a buildup in brain tissue. […] To determine which mechanisms are involved in evacetrapib distribution to the brain, a semi-PBPK model was developed (parameter values are in Table 1; Figure 5). To this end, we first aimed to determine the brain: plasma partition coefficient of evacetrapib using rapid equilibrium dialysis. […] This may be in line with our in vivo observations considering that only a small fraction of evacetrapib crossed the blood–brain barrier. However, the slow diffusion in our in vitro model is incongruent with the concentrations of evacetrapib found in the brain 2.2 h following intravenous injections. Thus, the implication of transporters cannot be excluded.

[2] = Semi-PBPK three-compartment model of distribution to the brain; parameters: species or system mice
Experimental: A semi-physiological-based pharmacokinetic (PBPK) model was developed to obtain more mechanistic information on the distribution of evacetrapib in the brain. First, a two-compartmental model (i.e., a plasma and a peripheral compartment) with a first-order elimination rate was fitted to describe the kinetics of the compound in plasma ([Mukherjee, 2022]) (Figure 1). Second, a third compartment was added and connected to the plasma compartment (Figure 1). The brain compartment was subdivided into vascular and tissue sub-compartments, with mass balance differential equations describing a distribution in the tissue that can be limited by diffusion as follows ([Shen, 2010]): dABrT/dt=PA∙CBrP−PA∙CBrT/PBr, (9) CBrT=ABrT/VBr1−VBrVF, (10) dABrP/dt=QBrCp−CBrP−PA∙CBrP−PA∙CBrT/PBr, (11) CBrP=ABrP/VBr∙VBrVF∙PF, (12) CBr=ABrT+ABrP/VBr, (13) where ABrT is the amount in the brain tissue, ABrP is the amount in the brain plasma, CBrP the concentration in the brain plasma, CBrT the concentration in the brain tissue subcompartment, CBr the concentration in the brain, Cp the plasma concentration, PA the permeability area product, PBr the brain-to-plasma partition coefficient, PF the plasma fraction of the blood, VBrVF the vascular volume fraction of the brain, VBr the volume of the brain, and QBr plasma flow to the brain.
Several scenarios were tested using this semi-PBPK model and brain concentration data to determine the mechanisms that best explain accumulation in the brain: 1) no permeability (i.e., PA = 0 L/h); 2) a perfusion-limited distribution (PA > 1,000,000 L/h) using the predicted PBr ([Poulin and Haddad, 2011]); 3) a perfusion-limited distribution with a low PBr (fitted); 4) a diffusion-limited distribution (fitted PA) using the predicted PBr; and 5) diffusion-limited distribution (fitted PA) and low PBr (fitted).
We used a semi-physiological three-compartment model to simulate the in vivo data (Figure 1). The parameters for the plasma and peripheral compartments were fitted to the plasma concentration at 40 mg/kg BW (Table 1; Figure 5B) ([Brown et al., 1997]; [Peyret et al., 2010]). Then, four scenarios were simulated assuming the following: a) perfusion-limited distribution with the predicted brain-to-plasma partition coefficient (PBr), b) as in a) with a low PBr, c) diffusion-limited distribution with the predicted PBr, and d) as in c) with low PBr, against the brain concentration data corrected for residual blood as explained in the Methods section. When assuming perfusion-limited distribution, the model could not simulate the observed data (Figure 5A), even when we adjusted for PBr. […] Thus, we propose that evacetrapib enters the brain in a diffusion-limited manner, which could include some form of facilitated transport.

[3] = continuous administration; ref Small et al., 2015; Nurmohamed et al., 2022; cited from earlier work
[4] = cited from earlier work
[5] = parameters: method as in Small et al., 2015; settings: ref Small et al., 2015; cited from earlier work
CETP in human plasma = test system: CETP in human plasma; parameters: method as in Cao et al., 2011; settings: ref Cao et al., 2011, read-out: IC50 of CETP inhibition; cited from earlier work
[6] = two-compartment model, fitted to plasma concentration at 40 mg/kg BW

With `Cc1cc(C)c2c(c1)[C@@H](N(Cc1cc(C(F)(F)F)cc(C(F)(F)F)c1)c1nnn(C)n1)CCCN2C[C@H]1CC[C@H](C(=O)O)CC1` [evacetrapib] the “Fraction diffused across the dialysis membrane” value [1] was 2%, the “Permeability area product (PA)” value ([2]; fitted, diffusion-limited distribution) was 1.1e-05 L/h and the Kp ([2]; male, hCETPtg (C57BL/6J background), mouse, intravenous, 40 mg/kg BW, fitted to brain concentrations corrected for residual blood, read-out: Brain:plasma partition coefficient (PBr)) was 0.06. The k el ([2]; male, hCETPtg (C57BL/6J background), mouse, intravenous, two-compartment model, fitted to plasma concentration at 40 mg/kg BW, read-out: Elimination constant (Kel) (converted)) was 0.000386 s⁻¹, the “Apparent plasma volume (Vplasma)” value [2, 6] was 0.01 L and the “Peripheral to plasma transfer constant (K21)” value [2, 6] was 1.21 h⁻¹. The “Plasma to peripheral transfer constant (K12)” value [2, 6] was 2.4 h⁻¹, the “Accumulation in adipose tissues” value [3] was “does not accumulate in adipose tissues” and the Tolerated dose ([4]; rat, in vivo, po) was “up to 600 mg/kg BW/day”. The Oral absorption fraction ([4]; rats, oral gavage, ref Takubo et al., 2014, Simic et al., 2017) was 25%, the “logP (octanol to water partition coefficient)” value [5] was 7.56 and the IC50 (CETP in human plasma) was 0.036 µM.
